What was measured:
[1] = biological target: T1, EGFR WT (amino acids 669-1011) (Homo sapiens, UniProt P00533); test: KdELECT binding assay, EGFR WT
T1 construct: purchased Eurofins Discovery (KdELECT); host or cells: bacteria (E. coli BL21-derived, T7 phage)
Method: (§1) Exemplary compounds were tested for ability to bind to EGFR WT (amino acids 669-1011, Accession Number NP_005219.2) or EGFR T790M, L858R (amino acids 669-1011 Accession Number NP_005219.2) expressed from bacteria or mammalian cells, respectively. Compounds were tested using the KdELECT assay at Eurofins Discovery.
(§2) Kinase-tagged T7 phage strains were prepared in an E. coli host derived from the BL21 strain. E. coli were grown to log-phase and infected with T7 phage and incubated with shaking at 32° C. until lysis. The lysates were centrifuged and filtered to remove cell debris. The remaining kinases were produced in HEK-293 cells and subsequently tagged with DNA for qPCR detection. Streptavidin-coated magnetic beads were treated with biotinylated small molecule ligands for 30 minutes at room temperature to generate affinity resins for kinase assays. The liganded beads were blocked with excess biotin and washed with blocking buffer (SeaBlock (Pierce), 1% BSA, 0.05% Tween 20, 1 mM DTT) to remove unbound ligand and to reduce non-specific binding. Binding reactions were assembled by combining kinases, liganded affinity beads, and test compounds in 1x binding buffer (20% SeaBlock, 0.17× PBS, 0.05% Tween 20, 6 mM DTT). Test compounds were prepared as 111× stocks in 100% DMSO. Kd values were determined using an 11-point 3-fold compound dilution series with three DMSO control points. All compounds for Kd measurements are distributed by acoustic transfer (non-contact dispensing) in 100% DMSO. The compounds were then diluted directly into the assays such that the final concentration of DMSO was 0.9%. All reactions performed in polypropylene 384-well plate. Each was a final volume of 0.02 mL. The assay plates were incubated at room temperature with shaking for 1 hour and the affinity beads were washed with wash buffer (1× PBS, 0.05% Tween 20). The beads were then re-suspended in elution buffer (1× PBS, 0.05% Tween 20, 0.5 μM nonbiotinylated affinity ligand) and incubated at room temperature with shaking for 30 minutes. The kinase concentration in the eluates was measured by qPCR.

[2] = biological target: T2, EGFR T790M, L858R (amino acids 669-1011) (Homo sapiens, UniProt P00533, L858R/T790M); test: KdELECT binding assay, EGFR T790M, L858R
T2 construct: purchased Eurofins Discovery (KdELECT); host or cells: mammalian cells (HEK-293)
T2 sequence (P00533 669-1011 T790M/L858R): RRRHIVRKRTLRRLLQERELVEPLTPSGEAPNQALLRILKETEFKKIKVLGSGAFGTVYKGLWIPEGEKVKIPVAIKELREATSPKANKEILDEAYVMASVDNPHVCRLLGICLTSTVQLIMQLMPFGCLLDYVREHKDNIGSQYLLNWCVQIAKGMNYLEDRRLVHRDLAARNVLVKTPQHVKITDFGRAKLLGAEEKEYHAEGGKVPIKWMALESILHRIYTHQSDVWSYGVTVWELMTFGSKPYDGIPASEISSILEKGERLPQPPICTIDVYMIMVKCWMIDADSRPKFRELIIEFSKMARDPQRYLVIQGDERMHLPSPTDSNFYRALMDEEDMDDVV
Method: as §1, §2

[3] = biological target: T3, EGFR T790M/L858R kinase domain (Homo sapiens, UniProt P00533, L858R/T790M); test: EGFR cellular target engagement assay (HEK293 cells stable for EGFR T790M, L858R); type: cell-based; conditions: 6 hours, read-out: TE50 (the source's name)
T3 construct: EGFR (amino acids 696-1022, T790M, L858R); expressed in transfected cells; host or cells: HEK293, lentiviral transduction, puromycin selection
T3 sequence (P00533 696-1022 T790M/L858R): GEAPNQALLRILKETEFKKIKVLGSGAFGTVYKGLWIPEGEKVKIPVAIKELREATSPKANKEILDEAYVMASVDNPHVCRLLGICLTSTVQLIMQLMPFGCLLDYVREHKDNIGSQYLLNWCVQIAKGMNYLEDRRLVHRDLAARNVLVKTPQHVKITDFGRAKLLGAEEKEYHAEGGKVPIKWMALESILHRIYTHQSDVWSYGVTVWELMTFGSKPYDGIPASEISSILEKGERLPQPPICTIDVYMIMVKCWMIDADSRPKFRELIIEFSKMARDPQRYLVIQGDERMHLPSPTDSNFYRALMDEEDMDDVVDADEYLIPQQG
Method: HEK293 cells were cultured in DMEM (Gibco 11995), supplemented with 10% Heat-inactivated FBS (Gibco A38400-01) and 1% Penicillin/Streptomycin (Gibco 15140-122) at 37° C. with 5% CO2 in a humidified tissue culture incubator. Cells were made stable for EGFR (amino acids 696-1022, T790M, L858R) by lentiviral transduction, followed by selection with 1 μg/ml Puromycin Dihydrochloride (Thermo A1113803). Cells were seeded at 30,000 cells/ml in 0.1 ml of complete media in Poly-D-lysine-treated 96-well plates and incubated overnight. Cells were treated with increasing concentrations of compound and let incubate at 37C and 5% CO2 for 6 hours, after which media was aspirated, washed with 1×PBS and cells were lysed in RIPA Lysis and Extraction Buffer (Thermo 89901) supplemented with 5 mM MgCl2, Protease and Phosphatase inhibitor cocktail (Thermo 1861281), and Universal Nuclease (Thermo 88700). Plates with RIPA were shaken at 4° C. at 600 rpm for 15 min. After shaking samples, they were collected and spun down at 21,000 g for 15 min at 4° C. Following centrifugation, […] of lysate was added to Laemmli Sample Buffer (Bio-Rad 1610747) plus 10% beta-mercaptoethanol, boiled for 15 minutes at 65° C. and loaded onto 4-20% Mini-PROTEAN TGX™ Precast Protein Gels (Bio-Rad). Protein was transferred to a nitrocellulose membrane (Thermo LC2000) using the iBlot 2 Dry Blotting System (Thermo). After transfer, membranes were washed in 1× TBST (Bioland Scientific LLC TBST0103) 3× for 5 min. Following the wash, blocking buffer (Rockland MB-070) was added for 1 hour at room temperature. Primary antibodies against EGFR (Cell Signaling Technology 3197) and actin (Cell Signaling Technology 3700S) were added overnight at 4° C. Membranes were then washed again 3× for 5 min in 1× TBST. Secondary antibodies (LI-COR 926-68072 and 926-68073) were added and shaken for 1 hr at room temperature. Membranes were then washed 3× for 5 min in 1×TBST and developed. Membranes were placed on an Odyssey imager (LI-COR).

T1 sequence (P00533 669-1011): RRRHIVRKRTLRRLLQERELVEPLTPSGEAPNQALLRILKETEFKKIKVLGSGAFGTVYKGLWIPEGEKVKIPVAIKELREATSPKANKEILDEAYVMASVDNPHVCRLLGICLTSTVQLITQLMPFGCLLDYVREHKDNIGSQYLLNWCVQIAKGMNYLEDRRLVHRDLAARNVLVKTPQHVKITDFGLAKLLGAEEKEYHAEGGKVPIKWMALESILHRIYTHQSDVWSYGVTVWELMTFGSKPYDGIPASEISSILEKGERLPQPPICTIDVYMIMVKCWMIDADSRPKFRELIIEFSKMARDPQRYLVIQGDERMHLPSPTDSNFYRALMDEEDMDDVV

Kd [1] | Kd [2] | EC50 [3] | SMILES
> 2500 nM | 500 to 2500 nM | 5000 to 10000 nM | C=C(CN(C(=O)NCc1ccc2c(c1)CN(C1CCC(=O)NC1=O)C2=O)c1ccc(C)c(Cl)c1)C(=O)Nc1cc(Nc2ncc(-c3cn(C)c4ccccc34)cn2)c(OC)cc1N(C)CCN(C)C (centres unmarked) [Compound I-42]
50 to 500 nM | < 50 nM | – | C=C(COc1cc(Cl)cc(NC(=O)NCc2ccc3c(c2)CN(C2CCC(=O)NC2=O)C3=O)c1)C(=O)N[C@@H]1CN(c2nc(Nc3cn(C)nc3OC)c3ncn(C)c3n2)C[C@H]1F (some centres unmarked) [Compound I-45]
< 50 nM | < 50 nM | 250 to 5000 nM | C=C(COc1ccc(Cl)cc1NC(=O)NCc1ccc2c(c1)CN(C1CCC(=O)NC1=O)C2=O)C(=O)N[C@@H]1CN(c2nc(Nc3cn(C)nc3OC)c3ncn(C)c3n2)C[C@H]1F (some centres unmarked) [Compound I-47]
> 2500 nM | > 2500 nM | 250 to 5000 nM | C=C(COc1cc(Cl)cc(NC(=O)NCc2ccc3c(c2)CN(C2CCC(=O)NC2=O)C3=O)c1)C(=O)N1C[C@H](COc2nc(Nc3cnn(C)c3)nc3[nH]cc(Cl)c23)[C@@H](OC)C1 (some centres unmarked) [Compound I-54]
> 2500 nM | 500 to 2500 nM | > 10000 nM | C=C(COc1cc(Cl)cc(NC(=O)NCc2ccc3c(c2)CN(C2CCC(=O)NC2=O)C3=O)c1)C(=O)Nc1cccc(Oc2nc(Nc3ccc(N4CCN(C)CC4)cc3)nc3ccsc23)c1 (centres unmarked) [Compound I-55]
< 50 nM | < 50 nM | 250 to 5000 nM | C=C(COc1cc(Cl)cc(NC(=O)NCc2ccc3c(c2)CN(C2CCC(=O)NC2=O)C3=O)c1)C(=O)Nc1cc(Nc2nccc(-c3cn(C)c4ccccc34)n2)c(OC)cc1N(C)CCN(C)C (centres unmarked) [Compound I-59]
50 to 500 nM | < 50 nM | < 250 nM | C=C(COc1c(Cl)cccc1NC(=O)NCc1ccc2c(c1)CN(C1CCC(=O)NC1=O)C2=O)C(=O)Nc1cc(Nc2nccc(-c3cn(C)c4ccccc34)n2)c(OC)cc1N(C)CCN(C)C (centres unmarked) [Compound I-60]
500 to 2500 nM | 50 to 500 nM | > 10000 nM | C=C(COc1cc(Cl)cc(NC(=O)NCc2ccc3c(c2)CN(C2CCC(=O)NC2=O)C3=O)c1)C(=O)Nc1cccc(-c2cccc3cnc(Nc4ccc(N5CCN(CCO)CC5)c(F)c4F)nc23)c1 (centres unmarked) [Compound I-61]
– | – | 250 to 5000 nM | C=C(COc1c(Cl)cccc1NC(=O)NCc1ccc2c(c1)CN(C1CCC(=O)NC1=O)C2=O)C(=O)N[C@@H]1CN(c2nc(Nc3cn(C)nc3OC)c3ncn(C)c3n2)C[C@H]1F (some centres unmarked) [Compound I-69]
– | – | > 10000 nM | C=C(CN(C(=O)NCc1ccc2c(c1)CN(C1CCC(=O)NC1=O)C2=O)c1ccc(C)c(Cl)c1)C(=O)Nc1cccc(Oc2nc(Nc3ccc(N4CCN(C)CC4)cc3)nc3ccsc23)c1 (centres unmarked) [Compound I-70]
– | – | > 10000 nM | C=C(CN(C(=O)NCc1ccc2c(c1)CN(C1CCC(=O)NC1=O)C2=O)c1ccc(C)c(Cl)c1)C(=O)N1C[C@@H](COc2nc(Nc3cnn(C)c3)nc3[nH]cc(Cl)c23)[C@H](OC)C1 (some centres unmarked) [Compound I-71]
> 2500 nM | < 50 nM | < 250 nM | C=C(CN1C(=O)CCC(N2Cc3cc(CNC(=O)Nc4ccc(C)c(Cl)c4)ccc3C2=O)C1=O)C(=O)Nc1cc(Nc2ncc(-c3cn(C)c4ccccc34)cn2)c(OC)cc1N(C)CCN(C)C (centres unmarked) [Compound I-87]
> 2500 nM | > 2500 nM | > 10000 nM | C=C(COC(=O)n1c(CNc2nc(N3CCNCC3)nc3c(Br)cnn23)nc2cc(C)ccc21)C(=O)N1C[C@H](COc2nc(Nc3cnn(C)c3)nc3[nH]cc(Cl)c23)[C@@H](OC)C1 [Compound V-4]
50 to 500 nM | 50 to 500 nM | 250 to 5000 nM | C=C(COc1cc(-c2ccccn2)ccc1CNc1nc(N[C@H](CC)CO)nc2c1ncn2C(C)C)C(=O)N[C@@H]1CN(c2nc(Nc3cn(C)nc3OC)c3ncn(C)c3n2)C[C@H]1F [II-183]
> 2500 nM | > 2500 nM | > 10000 nM | C=C(COC(=O)N1CCN(c2nc(NCc3nc4cc(C)ccc4[nH]3)n3ncc(Br)c3n2)CC1)C(=O)N1C[C@H](COc2nc(Nc3cnn(C)c3)nc3[nH]cc(Cl)c23)[C@@H](OC)C1 [II-185]
< 50 nM | < 50 nM | < 250 nM | C=C(CN1CCN(c2nc(NCc3nc4cc(C)ccc4[nH]3)n3ncc(Br)c3n2)CC1)C(=O)Nc1cc(Nc2nccc(-c3cn(C)c4ccccc34)n2)c(OC)cc1N(C)CCN(C)C [II-188]
> 2500 nM | 500 to 2500 nM | > 10000 nM | C=C(CN1CCN(c2nc(NCc3nc4cc(C)ccc4[nH]3)n3ncc(Br)c3n2)CC1)C(=O)Nc1cccc(-c2cccc3cnc(Nc4ccc(N5CCN(CCO)CC5)c(F)c4F)nc23)c1 [II-191]

From patent US20240408093A1, “HETEROBIFUNCTIONAL COMPOUNDS AND THEIR USE IN TREATING DISEASE” (HALDA THERAPEUTICS OPCO, INC., priority 2022, published 2024)
